Measurements published in patent US9725752B2, “Resonator and process for performing biological assay” (THE UNITED STATES OF AMERICA, AS REPRESENTED BY THE …, priority 2015, dated 2017).

What was measured:
Type in all cases: cell-based
[1] = tested on: Escherichia coli (E. coli) cells; assay: Phase noise of piezoelectric resonator with adhered microbes exposed to antibiotic; details: for time frame in which the resonator method detects antimicrobial action against live E. coli cells: preliminary experiments; for PSDs of the acoustic resonators when the antibiotic was introduced: spectral power 4 Hz to 20 Hz, FIG. 35, FIG. 36
Description: An acoustic article was prepared to detect microbial viability through measurements of phase noise of a resonator on which microbes were adhered. An acoustic article was prepared by combining a piezoelectric resonator (commercially available from Biolin Scientific, model Q-Sense) and custom fabricated components that interfaced to the piezoelectric resonator. The piezoelectric resonator included an electrical contact to a piezoelectric crystal. […] One side of the piezoelectric crystal faced a fluid chamber and was coated with a thin layer of poly-L-lysine (PLL) to promote adhesion of microbes to the surface. The piezoelectric resonator was disposed on an aluminum platform that incorporated electrical lines to the resonator, and the platform was placed on a thermally controlled platform held at a constant temperature of approximately 37° C. Phosphate-buffered saline (PBS) was introduced to the fluid chamber, and electronics configured according to FIG. 30 and FIG. 31 were used to determine the resonant frequency of the resonator by varying the output frequency from frequency source 200 while monitoring the amplitude of the RF output from amplifier 222. The output frequency of the CW voltage from the frequency source was then set to this measured resonant frequency. Subsequently, averaged power spectral densities of phase noise from the resonator were determined from the measured time-varying voltage from phase-noise detector 106 passed to vector signal analyzer 206, through the use of a calibration of phase-noise detector 106. Following acquisition of this background spectrum, Escherichia coli (E. coli) cells were suspended in PBS and flowed through the fluid chamber over the crystal for five minutes. The chamber was then drained of fluid and refilled with Luria-Bertani (LB) broth to provide nutrients for bacterial growth. E. coli adhered to the crystal surface during this sequence, and unattached cells were washed away.
Power spectral densities (PSDs) were repeatedly acquired over a period beginning 30 minutes before ampicillin in LB was introduced to the crystal and ending 68 minutes after this introduction of ampicillin. Before the acquisition of each averaged spectrum, the output of frequency source 200 was retuned to the current frequency of the resonator while monitoring the output of amplifier 222. […] The background PSD in PBS has been subtracted from these spectra.
To provide a scalar quantity reflective of the measured PSDs, the spectra in FIG. 33 and similar spectra at other times during the experiment were integrated over the frequency range from 3 Hz to 20 Hz. This quantity, which is the total spectral power over this frequency range, is plotted in FIG. 34 as a function of time.
Simultaneous control measurements of PSDs were also acquired on a second piezoelectric crystal with the same sequence of introduction of fluids, except that the effector fluid contained no ampicillin. With this control crystal, PSDs increased continuously during the entire experiment.
The acoustic article, electronic circuitry, data acquisition procedures, and fluid-analyte processing steps described in Example 1 were used to probe the effect of an antibiotic, polymyxin B, on phase noise generated by E. coli Here, two identical resonators (“Crystal A” and “Crystal B”) were used in which Crystal B was not exposed to polymyxin B until more than 40 minutes after introduction of polymyxin B to Crystal A.
Measurements of PSDs of the first resonator (Crystal A) before and after exposure of E. coli to polymyxin B are shown in FIG. 35. […] Data from second resonator Crystal B with E. coli not exposed to polymyxin B during 0-40 minutes are shown in FIG. 36 and labelled as “Crystal B,” wherein data labelled as “Crystal A” are data taken in presence of polymyxin B during 0-40 minutes and later.

[2] = tested on: Escherichia coli (E. coli) cells; assay: Optical microscope images of cell density on the crystal
[3] = tested on: Escherichia coli (E. coli) cells; assay: Plating of cells collected from the crystal for enumeration of colony-forming units (CFUs); details: LB-agar plates, growth at least 24 hours; for number of CFUs relative to a parallel sample not exposed to antibiotic: cells collected from crystal
Text: To confirm the action of the antibiotic on E. coli viability, cells were collected from the surface of the crystal and plated after serial dilution onto LB-agar plates for enumeration of colony-forming units (CFUs).
To confirm the action of the antibiotic on E. coli viability, cells were collected from the surface of the resonators (Crystal A and Crystal B) and plated after serial dilution onto LB-agar plates for enumeration of colony-forming units (CFUs).

Compound | spectral power of phase noise soon after introduction of antibiotic ([1]; PSD integrated 3 Hz to 20 Hz, E. coli on PLL-coated crystal in LB, approx. 37° C., FIG. 34) | time after introduction of antibiotic at which spectral power began dropping towards the background level ([1]; PSD integrated 3 Hz to 20 Hz, FIG. 34) | time frame in which the resonator method detects antimicrobial action against live E. coli cells [1] | PSDs of the acoustic resonators when the antibiotic was introduced [1] | cell density after introduction of antibiotic ([2]; period beginning 30 min after introduction of ampicillin, FIG. 34) | number of CFUs relative to a parallel sample not exposed to antibiotic [3] | disintegration of E. coli cells [2] | CFUs recovered from treated resonators ([3]; FIG. 37)
CC1(C)S[C@@H]2[C@H](NC(=O)[C@H](N)c3ccccc3)C(=O)N2[C@H]1C(=O)O [ampicillin] | essentially leveled off | approximately 30 minutes | within a one-hour time frame | dropped dramatically | dropped as a result of lysing and disintegration of cells | several log decrease | – | –
polymyxin B | – | – | within a one-hour time frame | dropped dramatically | – | greater than several log decrease | does not induce a disintegration | no CFUs were recovered
